Data published in EP0652220A1, “CEPHALOSPORIN DERIVATIVE” (TAISHO PHARMACEUTICAL CO. LTD, priority 1992, dated 1994).

Experiments:
[1] = mortality after a single intraperitoneal dose in mice; format: in vivo, male ICR strain mice; details: single dose 4,000 mg/kg intraperitoneal, 50 ml/kg (saline), 3 mice per group, observation for 14 days
Method: The mortality after a single dose of the test drug was measured using 3 male ICR strain mice (4 weeks old) for each group. Administration route : intraperitoneal Administration volume : 50 ml/kg (saline) Dose : 4,000 mg/kg Observation period : for 14 days after the administration The results are shown in Table 3.

[2] = system: Haemophilus influenzae ATCC 19418; assay: antibacterial test, agar plate dilution method; format: cell-based; details: inoculum size 10⁶ cells/ml
Method: (§1) The antibacterial test against various bacteria was carried out by the agar plate dilution method (inoculum size : 10⁶ cells/ml), and the results are shown in the following Table 1.

[3] = system: Klebsiella pneumoniae IFO 3317; assay: antibacterial test, agar plate dilution method; format: cell-based; details: inoculum size 10⁶ cells/ml
Method: as §1

[4] = system: Serratia marcescens IID 618; assay: antibacterial test, agar plate dilution method; format: cell-based; details: inoculum size 10⁶ cells/ml
Method: as §1

[5] = system: Staphylococcus epidermidis sp-al-1; assay: antibacterial test, agar plate dilution method; format: cell-based; details: inoculum size 10⁶ cells/ml
Method: as §1

[6] = system: Eschelichia coli NIHJ JC-2; assay: antibacterial test, agar plate dilution method; format: cell-based; details: inoculum size 10⁶ cells/ml
Method: as §1

[7] = system: Enterococcus faecalis CSJ 1212; assay: antibacterial test, agar plate dilution method; format: cell-based; details: inoculum size 10⁶ cells/ml
Method: as §1

[8] = system: Proteus mirabilis IFO 3849; assay: antibacterial test, agar plate dilution method; format: cell-based; details: inoculum size 10⁶ cells/ml
Method: as §1

[9] = system: Staphylococcus aureus 209P-JP; assay: antibacterial test, agar plate dilution method; format: cell-based; details: inoculum size 10⁶ cells/ml
Method: as §1

[10] = system: Morganella morganii IID 602; assay: antibacterial test, agar plate dilution method; format: cell-based; details: inoculum size 10⁶ cells/ml
Method: as §1

[11] = concentration of the drug in blood after oral administration to mice; format: in vivo, male ICR strain mice; parameters: unit not given here; details: 20 mg/kg suspended in 5% gum arabic, bioassay (Bacillus cereus S1101)
Method: Three male ICR strain mice (4 weeks old) for each group were administered orally with the test drug, and the change of the concentration of the drug in blood was measured with the lapse of time. Dose of drug: 20 mg/kg (suspended in 5% gum arabic) Quantitative method: Bioassay method (test bacteria: Bacillus cereus S1101)

concentration of the drug in blood ([11]; 0.25 hour after administration)	concentration of the drug in blood ([11]; 0.5 hour after administration)	concentration of the drug in blood ([11]; 1.0 hour after administration)	concentration of the drug in blood ([11]; 2.0 hour after administration)	concentration of the drug in blood ([11]; 4.0 hour after administration)	SMILES	Mortality [1]	antibacterial activity [2]	antibacterial activity [3]	antibacterial activity [4]	antibacterial activity [5]	antibacterial activity [6]	antibacterial activity [7]	antibacterial activity [8]	antibacterial activity [9]	antibacterial activity [10]
–	–	–	–	–	C=CCSC1=C(C(=O)[O-])N2C(=O)[C@@H](NC(=O)/C(=N\O)c3csc(N)n3)[C@H]2SC1.[Na+] [D, 7β-{2-(2-aminothiazol-4-yl)-2-[(Z)-hydroxyimino]acetamido}-3-allylthio-3-cephem-4-carboxylic acid sodium salt]	2/3	0.39	0.20	1.56	0.20	0.39	3.13	0.20	0.20	0.20
14.0	18.4	15.4	8.4	4.0	C#CCSC1=C(C(=O)OCOC(=O)C(C)(C)C)N2C(=O)[C@@H](NC(=O)/C(=N\O)c3csc(N)n3)[C@H]2SC1 [E, pivaloyloxymethyl 7β-{2-(2-aminothiazol-4-yl)-2-[(Z)-hydroxyimino]acetamido}-3-(2-propynyl)thio-3-cephem-4-carboxylate]	–	–	–	–	–	–	–	–	–	–
–	–	–	–	–	C#CCSC1=C(C(=O)[O-])N2C(=O)[C@@H](NC(=O)/C(=N\O)c3csc(N)n3)[C@H]2SC1.[Na+] [A, 7β-{2-(2-aminothiazol-4-yl)-2-[(Z)-hydroxyimino]-acetamido}-3-(2-propynyl)thio-3-cephem-4-carboxylic acid sodium salt]	0/3	0.20	0.05	0.78	0.20	0.20	1.56	0.10	0.20	0.10
1.8	2.0	2.5	1.2	0.1	C=CC1=C(C(=O)O)N2C(=O)[C@@H](NC(=O)/C(=N\O)c3csc(N)n3)[C@H]2SC1 [C, Cefnidir]	–	0.39	0.10	0.78	0.39	0.39	1.56	0.20	0.39	0.78
–	–	–	–	–	C=CC1=C(C(=O)O)N2C(=O)[C@@H](NC(=O)/C(=N\OCC(=O)O)c3csc(N)n3)[C@H]2SC1 [B, Cefixime]	–	0.05	0.025	0.20	25	0.39	>100	0.025	25	0.20
